From US20220249418A1, “COMPOSITIONS COMPRISING AMINO ACIDS FOR USE IN THE TREATMENT OF MITOCHONDRIAL DYSFUNCTION-RELATED DISEASES” (PROFESSIONAL DIETETICS INTERNATIONAL S.R.L., priority 2017, published 2022) come the findings set out here.

For the assay, the system named is HL-1 cardiomyocytes. Put plainly: oxygen consumption (Clark-type oxygen electrode). It is filed as cell-based, Mus musculus. The settings on record: HL-1 cells, 48 hr treatment, normalized to protein content; FIG. 5. The protocol: HL-1 cardiomyocytes (a gift from W. C. Claycomb, New Orleans, School of Medicine) were plated in fibronectin/gelatin-coated flasks, grown to 70%-80% confluence in Claycomb medium (JRH Biosciences) supplemented with 100 μM norepinephrine (from a 10 mM norepinephrine [Sigma-Aldrich] stock solution dissolved in 30 mM L-ascorbic acid [Sigma-Aldrich]), 2 mM L-glutamine, 100 U/ml penicillin, 100 μg/ml streptomycin and 10% FBS (JRH Biosciences) as disclosed in Claycomb et al., 1998.
At the end of these periods, mRNA and DNA were extracted from the cells or the cells were used to evaluate the oxygen consumption. Control cells were treated with Claycomb medium only.
An amount of 1 ml of HL-1 cardiomyocytes treated with the compositions shown in Table 1 was re-suspended in Hank's balanced salt solution (Sigma) and spun down to pellet cells. A number of HL-1 cells was also supplemented with a nitic oxide (NO) donor, specifically with diethylenetriamine-NO also called (DETA-NO; Sigma-Aldrich, Milan, Italy), as positive control. […]
Samples were analyzed at 37° C. in a gas-tight vessel equipped with a Clark-type oxygen electrode (Rank Brothers Ltd.) connected to a chart recorder. […]
Oxygen consumption was assessed with continuous mixing for about ten minutes. […] Protein content was determined by using the bicinchoninic acid protein (BCA) assay.

As for `NCCN(CCN)/[N+]([O-])=N/O` [DETA-NO, diethylenetriamine-NO], the oxygen consumption result was “a rise of oxygen consumption was observed”.
